These results are taken from patent US8481551B2, “Gyrase and topoisomerase IV inhibitors” (Vertex Pharmaceuticals Incorporated, priority 2011, dated 2013).

For one data set, the system named is S. aureus (ATCC 29213). As to the kind of experiment: Mouse S. aureus kidney infection model. Format: in vivo, CD-1 mice. To be noted: after 24 hours. The protocol: Animals: female CD-1 mice (8-10 weeks of age; 6/group), were obtained from Charles River Laboratories and were housed and maintained in accordance with the Guide to the Care and Use of Experimental Animals. Methicillin-sensitive S. aureus (MSSA) strain ATCC 29213 was obtained from the American Type Culture Collection. To prepare stocks for animal studies S. aureus was plated on Mueller Hinton Agar plates and incubated at 37° C. overnight. 3-4 colonies from the plate were used to inoculate 5 mL Mueller Hinton Broth (MHB) that was incubated for 8 hours at 37° C. with shaking at 300 RPM. The 5 mL 8-hour culture was diluted 20-fold into 100 mL and incubated overnight (12-14 hours). The bacteria were pelleted for 20 minutes at 3000× and washed twice with Phosphate-Buffered Saline (PBS) containing 0.5% Bovine Serum Albumin (BSA). Aliquots (1 mL) containing ˜1×10^10 cfu in PBS/20% Glycerol were frozen and stored at −80° C. until the day of use. Stock titers were confirmed by serial dilution and plating on Mueller Hinton agar plates. Prior to inoculation, bacterial stocks were thawed and washed once with PBS/BSA. The stocks were then diluted with PBS/BSA to a final concentration of 1×10^9 cfu/mL to give an inoculum of approximately 1-2×10^8 cfu per mouse in a volume of 100 uL. […] Injections were given intravenously via the tail vein using a sterile 30 gauge needle. Upon completion of the mouse infections, the bacterial stocks used to challenge the mice were plated and counted to verify the concentration of the inocula. […] Fisher Scientific). During collection and homogenization all of the samples were kept on ice and the homogenizer was washed thoroughly and sterilized between each sample. Homogenates were serially diluted in sterile PBS/BSA and plated on MH agar to determine bacterial counts per pair of kidneys. CD-1 mice (6/group) were challenged IV with S. aureus (ATCC 29213) at 2×10^8 cfu/mouse. […] The 30-minute and 6-hour treatment groups were treated once, while the 24-hour group received a second treatment 10 hours after the first dose. […] Burdens from pairs of kidneys for each mouse and the median for each group of mice were calculated. CD-1 mice (6/group) were challenged IV with S. aureus (ATCC 29213) at 2×10^8 cfu/mouse. After 2 hours a single group of mice (Early Control (EC)) was euthanized and the kidneys harvested, homogenized and plated to quantitate S. aureus burdens. The additional groups of infected mice were treated via oral gavage with Vehicle at 10 ml/kg (10% VitE TPGS; […] After 24 hours the groups of treated mice were euthanized and the kidneys harvested, homogenized and plated to quantitate S. aureus burdens. Burdens from pairs of kidneys for each mouse and the median for each group of mice were summarized. CD-1 mice (8/group) were challenged IV with S. aureus (ATCC 29213) at 2×10^8 cfu/mouse. After 2 hours a single group of mice (Early Control (EC)) was euthanized and the kidneys harvested, homogenized and plated to quantitate S. aureus burdens. The additional groups of infected mice were treated via oral gavage with Vehicle at 10 ml/kg (Water; […] After 24 hours the groups of treated mice were euthanized and the kidneys harvested, homogenized and plated to quantitate S. aureus burdens. Burdens from pairs of kidneys for each mouse and the median for each group of mice were summarized.

The next data set is described as follows: Aqueous solubility study. Format: physicochemical. To be noted: aqueous buffer, thermodynamic from solid; water, pH 4.39, crystalline solid form, 96 hours at room temperature. As to the method:
The aqueous solubilities of compound 23 and compound W were determined according to the following procedure.
Preparation of Samples. Aqueous samples of each compound were prepared as follows. Compounds were weighed (20-30 mg compound) in 4 ml clear vials prior to adding water (0.5 mL) and stirring by magnetic stirrer. 1.0N HCl was added to the suspension to adjust the pH to the desired range. After stirring for 96 hours at room temperature, the suspension was filtered through a 0.22 micron filter (Millipore, Ultrafree centrifugal filters, Durapore PVDF 0.22 μm, Cat# UFC30GVNB). The filtrate was collected and the pH measured with a pH meter.
Preparation of Standard Solutions. […]
Solubility Analysis. Aliquots of each sample and each standard solution were analyzed by HPLC analysis (Agilent 1100, injection volume 10 μL, wavelength 271 nm, column XTerra® Phenyl 5 μm, 4.6×50 mm, Part No. 186001144, mobile phase: A: 0.1% TFA in water 0.1% TFA in AcN). […] Standard curves were obtained by plotting the average of the peak area from the HPLC versus the concentrations of the standard solutions (with appropriate corrections of the weights of the standards based on total water content of the solid as determined by elemental analysis). The concentration of each sample was calculated from the peak area of the aqueous sample from the HPLC results and the slope and intercept of the standard curves. […]

In the next data set the test system is Streptococcus pneumoniae. As to the kind of experiment: Gyrase MIC, microdilution broth method (Protocol 1). To be noted: ATCC10015.
The mark [1] stands for this setting: single oral dose 16 (10) mg/kg Compound W.
Where [2] appears, read: single oral dose 49 (30) mg/kg Compound W.
[3] abbreviates: single oral dose 99 (60) mg/kg Compound W.
[4] abbreviates: single oral dose 166 (100) mg/kg Compound W.

In the case of `CCNC(=O)Nc1nc2cc(-c3cnc(C(C)(C)OP(=O)([O-])[O-])nc3)c(F)c([C@H]3CCCO3)c2[nH]1.[Na+].[Na+]` [Compound W, disodium (R)-2-(5-(2-(3-ethylureido)-6-fluoro-7-(tetrahydrofuran-2-yl)-1H-benzo[d]imidazol-5-yl)pyrimidin-2-yl)propan-2-yl phosphate], the “Median Kidney Burden (Log10 CFU/kidneys)” value is 3.69 Log10 CFU/kidneys in the data set on S. aureus (ATCC 29213) (single oral dose 16 (10) mg/kg Compound W (dose equivalent in brackets)), 3.22 Log10 CFU/kidneys with S. aureus (ATCC 29213) (setting [2]), 3.32 Log10 CFU/kidneys in the data set on S. aureus (ATCC 29213) (setting [3]) and 2.94 Log10 CFU/kidneys in the data set on S. aureus (ATCC 29213) (setting [4]). The “Log10 Difference vs. Early Control” value is reported as −0.71 in the data set on S. aureus (ATCC 29213) (setting [1]), −1.18 with S. aureus (ATCC 29213) (setting [2]), −1.08 in the data set on S. aureus (ATCC 29213) (setting [3]) and −1.46 in the data set on S. aureus (ATCC 29213) (setting [4]). Moreover, the “Log10 Difference vs. Late Control” value with S. aureus (ATCC 29213) (setting [1]) was −2.25; in the data set with S. aureus (ATCC 29213) (setting [2]), −2.72; in the data set on S. aureus (ATCC 29213) (setting [3]), −2.62; in the data set with S. aureus (ATCC 29213) (setting [4]), −3.00. For the same molecule, the “reduction of bacterial burdens versus the early control” value in the data set on S. aureus (ATCC 29213) (single oral doses of 16, 49, 99 and 166 mg/kg Compound W) is recorded as 0.7-1.5 logs. In “Aqueous solubility study”, this molecule had a solubility at 96 h of 250 µg/mL. Also, inhibition of growth with Streptococcus pneumoniae (MIC) required 0.25 µg/mL.
